Assays:
[1] = Hygroscopicity of HMB salts; type: physicochemical; details: compared with Ca-HMB
lymphocytes = experiment: In vitro effects of leucine or leucine metabolites on PHA-stimulated lymphocyte blastogenesis (3H-thymidine incorporation); type: cell-based, bovine; details: for activation at 1000 µM: Bos taurus, Lymphocyte, 72 h, final concentration 1 mM, PHA stimulated, read-out: % Change from No Additive, in vitro lymphocyte blastogenesis (Mean Percent Change, SEM)
Method: Lymphocyte Blastogenesis Determinations. Blood collections, lymphocyte isolation and blastogenesis assays were performed on isolated bovine cells by using a 3-d culture procedure as described previously in Kuhlman, et al. (1988), J. Nutr., 118:1564-1569.
Isolated lymphocytes were exposed to 1 and 10 mM Leu and KIC and the metabolites isovalarate, β-hydroxy-β-methyl butyrate (HMB), β-hydroxy-β-methyl glutarate, butyrate, acetate, acetone, acetoacetate, and β-hydroxy butyrate (BOHB). The cells were then stimulated with the mitogen phytohemagglutinin, and incorporation of ^3 H-thymidine into the DNA of the dividing lymphocytes was measured.
Leucine and Leucine Metabolites. Most of the compounds listed in Table B were purchased from Sigma Chemical Company, St. Louis, MO. KIC was purchased from SOBAC (Paris, France), HMB was synthesized as described in Example 1, and the calcium salt of HMB was purified by crystallization in 95% ethanol. The calcium salt was converted to a sodium salt form and used in subsequent assays. The pH of all compounds was adjusted to approximately 7.3. Compounds were passed through a 0.2-um filter assembly to assure sterility.

SMILES | Hygroscopicity (in words) [1] | Effect on blastogenesis (in words) (lymphocytes) | activation at 1000 µM (lymphocytes)
CC(C)(O)CC(=O)O [Na-HMB] | more hydroscopic than Ca-HMB | – | –
CC(O)(CC(=O)O)CC(=O)O [β-hydroxy-β-methyl glutarate] | – | increased blastogenesis slightly | 28%
CC(O)CC(=O)O (stereo not drawn) [β-hydroxybutyrate, β-hydroxy butyrate] | – | increased blastogenesis slightly | 25%

Source: patent US4992470A, “Method of enhancing immune response of mammals” (Iowa State University Research Foundation, Inc., priority 1990, dated 1991)
